Experimental findings from PubChem BioAssay (NCI) are described below.

Holding throughout (experiment): growth of human tumour cells (NCI), 48 h
Experiment [1] relates to RPMI-8226 leukemia.
Experiment [2] concerns UACC-257 melanoma.
Experiment [3] concerns K-562 leukemia.
Experiment [4] concerns RXF 393 renal.
Experiment [5] concerns HCT-15 colon.
In experiment [6] the test system is SW-620 colon.
In experiment [7] the test system is OVCAR-8 ovarian.
For experiment [8], the system named is SK-MEL-2 melanoma.

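Values below derive from 48-hour exposures of cells grown in 96-well plates, with endpoints linearly interpolated between the two concentrations bracketing the appropriate inhibition level. Abbreviation: GI50, concentration required for 50% inhibition of growth. At the TGI there is no net growth.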

`CC(=O)Nc1ccc(/C=c2\sc3nnc(CCC(=O)Nc4ccccc4Cl)n3c2=O)cc1`: the TGI in experiment [1] was 45.2 µM; in experiment [2], over 10 µM; in experiment [3] it was 68.3 µM; in experiment [4], 58.7 µM; in experiment [5] it was over 100 µM; in experiment [6], 87.5 µM. Further, the TGI in experiment [7] is over 10 µM; in experiment [8], 81.9 µM.
As to `N.N.NCCCCCN.O=C([O-])CCl.O=C([O-])CCl.O=C([O-])CCl.O=C([O-])CCl.[Pt+4].[Pt+4]`, the GI50 was 44.9 µM in experiment [1]; 9.12 µM in experiment [2]; 37.2 µM in experiment [3]; 2.87 µM in experiment [4]; 31.8 µM in experiment [5]; 4.58 µM in experiment [6]. In addition, the values for the GI50 in experiment [7] and in experiment [8] were 14 µM and 35.8 µM, respectively. The TGI is over 100 µM in experiment [1]; 94.6 µM in experiment [2]; over 100 µM in experiment [3]; 21.1 µM in experiment [4]; over 100 µM in experiment [5]; over 100 µM in experiment [6]. Further, the TGI in experiment [7] and in experiment [8] was over 100 µM each time.
Consider `CCCCCCCCOCC(O)COC(C)C` (stereo not given), for which the TGI in experiment [1] was 51.9 µM; in experiment [2], 72.7 µM; in experiment [3] it was 96.6 µM; in experiment [5], over 100 µM; in experiment [6], over 100 µM; in experiment [7], over 100 µM.
Consider `Cc1cc([N+](=O)[O-])ccc1Sc1c2ccccc2nc2cc(Cl)ccc12`, for which the TGI in experiment [2] is over 100 µM; in experiment [3], over 100 µM; in experiment [4] it was over 100 µM; in experiment [5], over 100 µM; in experiment [6], 93.5 µM; in experiment [7] it was 57.3 µM. Also, in experiment [8], the TGI is over 100 µM.
Consider `COC(=O)C(Cc1nc2ccccc2[nH]c1=O)/C(=N\NC(C)(C)C)C(=O)Nc1c(C)cc(Br)cc1C` (stereo not given), for which the TGI was over 100 µM in experiment [1]; over 100 µM in experiment [2]; over 100 µM in experiment [3]; 48.2 µM in experiment [5]; 80.1 µM in experiment [6]; 54.2 µM in experiment [7]. The same molecule showed a TGI in experiment [8] of over 100 µM.
Consider `C#CCNC(=O)N(CC#C)N=O`, for which the TGI in experiment [2], in experiment [3], in experiment [4], in experiment [5], in experiment [6] and in experiment [7] was over 100 µM throughout. Besides, in experiment [8], the TGI is over 100 µM.
In the case of `c1ccc([CH2][Sn]([CH2]c2ccccc2)([O]c2cccc3cccnc23)[O]c2cccc3cccnc23)cc1`, the GI50 in experiment [2] was 0.302 µM; in experiment [5], 0.394 µM; in experiment [6], 0.188 µM; in experiment [7], 0.515 µM; in experiment [8], 0.511 µM. Also, the TGI was 0.836 µM in experiment [2]; 1.37 µM in experiment [5]; 0.376 µM in experiment [6]; 1.59 µM in experiment [7]; 1.77 µM in experiment [8].
For `CCN(CC)CC(C)(C)C(=O)/C=C/c1cccc(/C=C/C(=O)C(C)(C)CN(CC)CC)c1`, the TGI is over 100 µM in experiment [1]; 2.66 µM in experiment [2]; over 100 µM in experiment [3]; 1.49 µM in experiment [4]; 2.37 µM in experiment [5]; 0.419 µM in experiment [6]. In experiment [7], the TGI was found to be 1.47 µM.
Take `COc1cccc2ccc(C(=O)c3ccccc3)nc12`: the TGI in experiment [1], in experiment [3], in experiment [5], in experiment [6], in experiment [7] and in experiment [8] was over 100 µM throughout.
Consider `COc1ccccc1NC(=O)C1=C(C)NC(C)=C(C(=O)Nc2ccccc2OC)C1C1=CC=COC1`, for which the TGI in experiment [1] is 50.1 µM; in experiment [2], 68.3 µM; in experiment [3], 26 µM; in experiment [5] it was 15 µM; in experiment [6], 22.1 µM; in experiment [7] it was 40.4 µM.
As for `COC1OC(CO)C(O)C(OC(C)=O)C1NC(=O)N(CCCl)N=O` (stereo not given), the TGI is over 100 µM in experiment [2]; over 100 µM in experiment [3]; over 100 µM in experiment [4]; over 100 µM in experiment [6]; over 100 µM in experiment [7]; 8.75 µM in experiment [8].
For `COC(=O)C1=Cc2cc(OC)c(OC)c(OC)c2[C@H](c2cc(OC)c(OC)c(OC)c2)C1C(=O)OC` (stereo not given in full), the TGI in experiment [1], in experiment [2], in experiment [3], in experiment [4], in experiment [5] and in experiment [6] was over 100 µM in each case. The molecule also registered a TGI in experiment [7] of over 100 µM.
Take `CC(=O)Nc1ccccc1-c1nc2ccccc2nc1C`: the TGI in experiment [1], in experiment [2], in experiment [3], in experiment [5], in experiment [6] and in experiment [7] was over 100 µM throughout. The same molecule returned a TGI in experiment [8] of over 100 µM.
